Test results as given in patent US8664391B2, “Amide compounds as boosters of antivirals” (Janssen R&D Ireland Ltd, priority 2008, dated 2014).
Like-named read-outs stand apart in the source and are kept apart here.

Tests used:
[1] = system: wild-type HIV-1 IIIB strain; test: Antiviral activity in MT4 LTR-EGFP cellular assay; format: cell-based; details: Human immunodeficiency virus 1, 72 h; wild-type HIV-1 IIIB, MT4 LTR-EGFP cells, three days after infection; pEC50 = -log10(EC50); read-out: Antiviral Activity IIIB pEC50 (converted)
[2] = Cytotoxicity in mock-infected MT4 CMV-EGFP cells; format: cell-based; details: human, pCC50 = -log10(CC50), read-out: Toxicity MT4 pCC50 (converted)
in vitro = in vitro ADME, human; details: human, pH 7.4
CYP3A4 = target: T1, CYP3A4 (Homo sapiens, UniProt P08684); test: CYP450 inhibition, fluorescent substrate assay, CYP3A4; format: biochemical; details: 10 μM test compound
T1 construct: host or cells: E. coli
T1 sequence (P08684 whole entry): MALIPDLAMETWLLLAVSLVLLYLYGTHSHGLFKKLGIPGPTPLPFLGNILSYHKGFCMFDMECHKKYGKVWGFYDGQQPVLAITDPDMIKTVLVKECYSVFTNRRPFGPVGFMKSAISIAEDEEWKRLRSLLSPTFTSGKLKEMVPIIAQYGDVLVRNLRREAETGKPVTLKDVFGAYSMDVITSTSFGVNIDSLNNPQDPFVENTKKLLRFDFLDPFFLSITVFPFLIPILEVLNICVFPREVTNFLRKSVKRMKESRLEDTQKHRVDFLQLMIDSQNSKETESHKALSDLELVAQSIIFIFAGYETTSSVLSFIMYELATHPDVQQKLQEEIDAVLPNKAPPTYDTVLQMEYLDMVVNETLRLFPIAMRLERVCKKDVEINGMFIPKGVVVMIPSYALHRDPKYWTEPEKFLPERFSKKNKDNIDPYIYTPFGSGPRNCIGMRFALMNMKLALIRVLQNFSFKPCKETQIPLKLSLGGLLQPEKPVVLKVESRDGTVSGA
How it was run: (§1)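 Test compounds were preincubated for 5 min at 37° C with CYP P450 enzyme and an NADPH generating system before phosphate-buffered (pH 7.4) fluorogenic substrate was added. Reactions were stopped with acetonitrile and the fluorescent product was read on a plate reader. Inhibition appears as loss of fluorescent signal.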

CYP2C9 = CYP2C9 (Homo sapiens, UniProt P11712); test: CYP450 inhibition, fluorescent substrate assay, CYP2C9; format: biochemical; details: pH 7.4
Chain of CYP2C9 (P11712 whole entry): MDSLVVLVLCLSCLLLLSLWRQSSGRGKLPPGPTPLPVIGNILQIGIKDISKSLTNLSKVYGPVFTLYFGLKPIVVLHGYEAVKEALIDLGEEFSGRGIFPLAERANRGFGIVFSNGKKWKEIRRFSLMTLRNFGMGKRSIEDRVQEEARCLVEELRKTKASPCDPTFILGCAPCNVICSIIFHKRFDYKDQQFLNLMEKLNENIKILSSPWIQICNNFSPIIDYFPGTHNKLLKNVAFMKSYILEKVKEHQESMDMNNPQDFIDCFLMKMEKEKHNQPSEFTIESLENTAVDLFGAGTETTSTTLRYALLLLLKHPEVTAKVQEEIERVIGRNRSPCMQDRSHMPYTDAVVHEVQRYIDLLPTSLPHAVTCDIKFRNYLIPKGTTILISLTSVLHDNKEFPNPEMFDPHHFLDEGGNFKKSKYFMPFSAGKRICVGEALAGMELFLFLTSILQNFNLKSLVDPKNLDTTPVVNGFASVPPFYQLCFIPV
How it was run: as §1

CYP2D6 = target: T2, CYP2D6 (Homo sapiens, UniProt P10635); test: CYP450 inhibition, fluorescent substrate assay, CYP2D6; format: biochemical; details: E. coli expressed CYP2D6, pH 7.4, probe AMMC (3 μM), 10 μM test compound, substrate AMMC 3 μM, read-out: 2D6-AMMC % inh.
T2 construct: host or cells: E. coli
T2 sequence (P10635 whole entry): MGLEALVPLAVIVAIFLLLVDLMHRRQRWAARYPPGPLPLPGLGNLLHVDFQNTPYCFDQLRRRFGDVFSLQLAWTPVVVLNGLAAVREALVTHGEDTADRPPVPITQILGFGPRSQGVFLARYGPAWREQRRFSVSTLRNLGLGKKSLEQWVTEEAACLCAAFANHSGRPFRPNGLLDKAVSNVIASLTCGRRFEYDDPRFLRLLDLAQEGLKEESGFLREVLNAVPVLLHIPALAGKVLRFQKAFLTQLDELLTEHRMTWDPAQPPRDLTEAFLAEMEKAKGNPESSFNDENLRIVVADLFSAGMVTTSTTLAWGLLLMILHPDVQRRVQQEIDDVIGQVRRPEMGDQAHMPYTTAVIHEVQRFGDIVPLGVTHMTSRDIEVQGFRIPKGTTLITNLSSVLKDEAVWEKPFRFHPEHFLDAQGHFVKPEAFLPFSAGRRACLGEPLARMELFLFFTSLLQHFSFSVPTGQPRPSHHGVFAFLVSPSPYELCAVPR
How it was run: as §1

CYP1A2 = target: T3, CYP1A2 (Homo sapiens, UniProt P05177); test: CYP450 inhibition, fluorescent substrate assay, CYP1A2; format: biochemical; details: E. coli expressed CYP1A2, pH 7.4, probe CEC (5 μM), 10 μM test compound, substrate CEC 5 μM, read-out: 1A2-CEC % inh.
T3 construct: host or cells: E. coli
T3 sequence (P05177 1-516): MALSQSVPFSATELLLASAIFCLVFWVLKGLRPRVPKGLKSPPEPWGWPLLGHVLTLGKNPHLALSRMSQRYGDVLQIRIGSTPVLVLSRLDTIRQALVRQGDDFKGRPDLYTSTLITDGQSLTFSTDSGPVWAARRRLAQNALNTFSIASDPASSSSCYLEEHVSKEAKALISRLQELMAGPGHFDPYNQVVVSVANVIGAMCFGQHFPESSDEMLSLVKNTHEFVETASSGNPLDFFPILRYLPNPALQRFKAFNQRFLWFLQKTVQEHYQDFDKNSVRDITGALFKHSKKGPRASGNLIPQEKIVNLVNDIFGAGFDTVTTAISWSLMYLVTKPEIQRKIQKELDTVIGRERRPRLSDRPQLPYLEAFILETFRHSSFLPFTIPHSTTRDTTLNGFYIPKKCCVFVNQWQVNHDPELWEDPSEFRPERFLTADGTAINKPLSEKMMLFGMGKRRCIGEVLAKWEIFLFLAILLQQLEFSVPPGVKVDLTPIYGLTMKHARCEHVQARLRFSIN
How it was run: as §1

CYP2C19 = target: T4, CYP2C19 (Homo sapiens, UniProt P33261); test: CYP450 inhibition, fluorescent substrate assay, CYP2C19; format: biochemical; details: E. coli expressed CYP2C19, pH 7.4, probe CEC (25 μM), 10 μM test compound, substrate CEC 25 μM, read-out: 2C19-CEC % inh.
T4 construct: host or cells: E. coli
T4 sequence (P33261 whole entry): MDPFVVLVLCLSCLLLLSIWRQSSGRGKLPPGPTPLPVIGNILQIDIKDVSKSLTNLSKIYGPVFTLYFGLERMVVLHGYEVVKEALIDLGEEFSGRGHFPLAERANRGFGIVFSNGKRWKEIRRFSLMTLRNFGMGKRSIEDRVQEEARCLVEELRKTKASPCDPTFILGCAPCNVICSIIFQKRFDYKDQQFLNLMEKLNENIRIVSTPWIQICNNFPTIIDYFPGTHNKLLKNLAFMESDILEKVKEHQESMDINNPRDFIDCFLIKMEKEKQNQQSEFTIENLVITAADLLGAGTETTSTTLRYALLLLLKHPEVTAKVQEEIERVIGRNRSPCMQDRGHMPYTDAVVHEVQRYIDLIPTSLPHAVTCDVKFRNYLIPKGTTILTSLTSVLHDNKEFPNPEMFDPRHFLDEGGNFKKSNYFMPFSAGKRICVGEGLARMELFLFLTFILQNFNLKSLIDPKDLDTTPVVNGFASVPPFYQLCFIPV
How it was run: as §1

SMILES: O=C(N[C@@H](Cc1ccccc1)[C@H](O)CN(CC1CCCCC1)C(=O)c1ccncc1)OCc1cncs1 [Compound C27]
- EC50 [1]: 74.1 µM
- CC50 at 3 days [2]: 83.2 µM
- recovery at 15 min, 5 μM (in vitro): 98%
- inhibition at 30 min, 10 μM (CYP3A4; E. coli expressed CYP3A4, pH 7.4, probe BFC (150 μM), substrate BFC 150 μM, read-out: 3A4-BFC % inh.): 101%
- inhibition at 30 min, 10 μM (CYP3A4; E. coli expressed CYP3A4, pH 7.4, probe BQ (60 μM), substrate BQ 60 μM, read-out: 3A4-BQ % inh.): 81%
- inhibition at 10 min, 10 μM (CYP3A4; E. coli expressed CYP3A4, pH 7.4, probe DBF (1 μM), substrate DBF 1 μM, 10 min, read-out: 3A4-DBF % inh.): 90%
- inhibition at 30 min, 10 μM (CYP2C9): 84%
- inhibition at 45 min, 10 μM (CYP2D6): 86%
- inhibition at 15 min, 10 μM (CYP1A2): 10%
- inhibition at 30 min, 10 μM (CYP2C19): 96%
